Experimental data taken from EP0006532A1, “Lactams, methods for their preparation, and medicaments containing them” (Dr. Karl Thomae GmbH, priority 1978, dated 1980).
≈ marks a conversion by molar mass, not a printed value.

Tests used:
[1] = tested on: Ser. marcescens ATCC 13880; assay: MIC (MHK), agar diffusion and serial dilution test; type: cell-based; settings: Serratia marcescens, ATCC13880, read-out: MHK-Werte
Excerpt: (§1) Die Untersuchungen auf die antibakterielle Wirksamkeit in vitro wurde nach dem Agar-Diffusionstest und nach dem Reihenverdünnungstest in Anlehnung an die von P. Klein in "Bakteriologische Grundlagen der Chemotherapeutischen Laboratoriumspraxis", Springerverlag 1957, Seiten 53 bis 76 und 87 bis 109, beschriebenen Methodik durchgeführt.
(§2) Für D-α-[3-(3,4-Dihydro-3-methyl-2-hydroxy-4-oxo-5- pyrimidyl)-ureido/-p-hydroxybenzyl-penicillin-Natrium (Verbindung 1) und für Natrium-7-{D-α-[3-(3,4-Dihydro-2-hydroxy-3-methyl-4-oxo-5-pyrimidyl)-ureido]-p-hydroxyphenylacetamido}-3-[(1-methyl-tetrazol-5-yl)-thiomethyl]-ceph-3-em-4-carboxylat (Verbindung 2) wurden folgende MHK-Werte gegen einige gramnegative Keime gemessen: […]

Proteus Vulgaris = assay: MIC (MHK), agar diffusion and serial dilution test; type: cell-based; settings: read-out: MHK-Werte
Excerpt: as §1, §2

Pseud.aerug. ATCC 10145 = assay: MIC (MHK), agar diffusion and serial dilution test; type: cell-based; settings: read-out: MHK-Werte
Excerpt: as §1, §2

E.coli ATCC 9637 = assay: MIC (MHK), agar diffusion and serial dilution test; type: cell-based; settings: Escherichia coli, ATCC9637, read-out: MHK-Werte
Excerpt: as §1, §2

Klebs. pneum. 272 = assay: MIC (MHK), agar diffusion and serial dilution test; type: cell-based; settings: read-out: MHK-Werte
Excerpt: as §1, §2

E.coli 12593/ 74 = assay: MIC (MHK), agar diffusion and serial dilution test; type: cell-based; settings: Escherichia coli, read-out: MHK-Werte
Excerpt: as §1, §2

Pseud.aerug Hbg. = assay: MIC (MHK), agar diffusion and serial dilution test; type: cell-based; settings: read-out: MHK-Werte
Excerpt: as §1, §2

Proteus mirab. = assay: MIC (MHK), agar diffusion and serial dilution test; type: cell-based; settings: read-out: MHK-Werte
Excerpt: as §1, §2

E.coli ATCC 11775 = assay: MIC (MHK), agar diffusion and serial dilution test; type: cell-based; settings: Escherichia coli, ATCC11775, read-out: MHK-Werte
Excerpt: as §1, §2

Klebs. pneum. ATCC 10031 = assay: MIC (MHK), agar diffusion and serial dilution test; type: cell-based; settings: read-out: MHK-Werte
Excerpt: as §1, §2

[2] = tested on: E. coli des Stammes ATCC 11 775; assay: ED50 in intraperitoneal E. coli infection of mice; type: in vivo, Albino-Mäusen vom Stamm NMRI; settings: Escherichia coli, ATCC11, sc; intraperitoneal E. coli ATCC 11 775 infection, NMRI albino mice, subcutaneous application; treated three times on day 1 (first 1 h after infection), twice daily on 2 further days
Description: Dabei wurde die ED50 der oben genannten Verbindungen 1 und 2 bei einer intraperitonealen E. coli-Infektion an Albino-Mäusen vom Stamm NMRI bestimmt. Am ersten Tag wurde dreimal behandelt (erstmals 1 h nach Infektion) und 2 weitere Tage zweimalig.

SMILES	MIC [1]	MIC (Proteus Vulgaris)	MIC (Pseud.aerug. ATCC 10145)	MIC (E.coli ATCC 9637)	MIC (Klebs. pneum. 272)	MIC (E.coli 12593/ 74)	MIC (Pseud.aerug Hbg.)	MIC (Proteus mirab.)	MIC (E.coli ATCC 11775)	MIC (Klebs. pneum. ATCC 10031)	ED50 [2]
Cn1nnnc1SCC1=C(C(=O)O)N2C(=O)[C@@H](NC(=O)[C@H](NC(=O)Nc3cnc(O)n(C)c3=O)c3ccc(O)cc3)[C@H]2SC1 [Beispiel 2]	10 µg/mL (≈ 15.5 µM)	10 µg/mL (≈ 15.5 µM)	20 to 40 µg/mL (≈ 31 to 62 µM)	1.25 µg/mL (≈ 1.94 µM)	2.5 µg/mL (≈ 3.88 µM)	5 µg/mL (≈ 7.76 µM)	20 µg/mL (≈ 31 µM)	1.25 µg/mL (≈ 1.94 µM)	1.25 µg/mL (≈ 1.94 µM)	1.25 µg/mL (≈ 1.94 µM)	
Cn1nnnc1SCC1=C(C(=O)[O-])N2C(=O)C(NC(=O)[C@H](NC(=O)Nc3cnc(O)n(C)c3=O)c3ccc(O)cc3)[C@H]2SC1.[Na+] (stereo partly drawn) [Verbindung 2, Natrium-7-{D-α-[3-(3,4-Dihydro-2-hydroxy-3-methyl-4-oxo-5-pyrimidyl)-ureido]-p-hydroxyphenylacetamido}-3-[(1-methyl-tetrazol-5-yl)-thiomethyl]-ceph-3-em-4-carboxylat]											3.3 mg/kg
Cn1c(O)ncc(NC(=O)N[C@@H](C(=O)N[C@@H]2C(=O)N3[C@@H]2SC(C)(C)[C@@H]3C(=O)O)c2ccc(O)cc2)c1=O [Verbindung 1]	2.5 µg/mL (≈ 4.69 µM)	10 µg/mL (≈ 18.8 µM)	5 µg/mL (≈ 9.39 µM)	2.5 µg/mL (≈ 4.69 µM)	40 to 80 µg/mL (≈ 75.1 to 150 µM)	> 80 µg/mL	5 µg/mL (≈ 9.39 µM)	1.25 µg/mL (≈ 2.35 µM)	2.5 µg/mL (≈ 4.69 µM)	40 to 80 µg/mL (≈ 75.1 to 150 µM)	7 mg/kg
